Data reported in PubChem BioAssay (NCI).
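Protocol summary: plate cells (96-well), add compound at 5 concentrations, incubate 48 h, interpolate endpoints linearly. GI50 marks 50% less growth. Definition used: TGI = concentration required for complete inhibition of growth.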

Assays:
Test in all cases: growth of human tumour cells (NCI), 48 h
[1] = system: OVCAR-8 ovarian
[2] = system: CAKI-1 renal
[3] = system: KM12 colon
[4] = system: NCI-H23 lung
[5] = system: M14 melanoma
[6] = system: UACC-257 melanoma
[7] = system: NCI/ADR-RES ovarian
[8] = system: MDA-MB-231 breast
[9] = system: UO-31 renal
[10] = system: T-47D breast

| Compound | TGI [1] [µM] | TGI [2] [µM] | TGI [3] [µM] | TGI [4] [µM] | TGI [5] [µM] | TGI [6] [µM] | GI50 [1] [µM] | GI50 [7] [µM] | TGI [7] [µM] | GI50 [8] [µM] | TGI [8] [µM] | GI50 [9] [µM] | TGI [9] [µM] | GI50 [3] [µM] | GI50 [4] [µM] | GI50 [10] [µM] | TGI [10] [µM] | GI50 [5] [µM] | GI50 [6] [µM] | GI50 [2] [µM] |
| --- | --- | --- | --- | --- | --- | --- | --- | --- | --- | --- | --- | --- | --- | --- | --- | --- | --- | --- | --- | --- |
| O=C1CSc2cc([N+](=O)[O-])ccc2N1 | > 100 | > 100 | > 100 | > 100 | > 100 | > 100 | – | – | – | – | – | – | – | – | – | – | – | – | – | – |
| COc1cc(-c2csc(NC(=O)Nc3cc(Cl)cc(Cl)c3)n2)cc(OC)c1OC | 3.87 | – | 8.14 | 4.5 | 3.15 | 8.81 | 1.84 | 1.85 | 3.94 | 1.92 | 4.12 | 1.67 | 3.3 | 2.48 | 1.94 | 1.67 | 3.74 | 1.68 | 2.98 | – |
| CCN(CC)CC(=N)N(CC)c1ccccc1 | > 100 | > 100 | > 100 | > 100 | > 100 | > 100 | – | – | – | – | – | – | > 100 | – | – | – | – | – | – | – |
| O=C1OCC2=C1C(c1ccccc1)c1cc3c(cc1N2CCO)OCCO3 (configuration not stated) | > 50 | > 30.3 | 6.19 | > 50 | 1.66 | – | 0.651 | 0.377 | 1.93 | 1.14 | 11.5 | 0.3 | > 35.3 | 0.207 | 0.448 | 0.22 | > 50 | 0.23 | – | 0.293 |
| Oc1ccc(N=Nc2ccccn2)c(O)c1 | > 100 | – | > 100 | > 100 | – | > 100 | 1.63 | 0.503 | > 100 | 0.641 | > 100 | 0.479 | > 100 | 0.699 | 2.66 | 2.05 | > 100 | – | 3.06 | – |
| O=C(O)/C(=C\c1ccncc1)c1cccc2ccccc12 | > 100 | – | > 100 | > 100 | > 100 | 30.7 | – | – | > 100 | – | > 100 | – | – | – | – | – | > 100 | – | – | – |
| N.N.O=P([O-])([O-])C1(P(=O)([O-])[O-])CCCCCN1.[Pt+2] | > 100 | > 100 | > 100 | > 100 | > 100 | > 100 | > 100 | – | – | – | – | > 100 | > 100 | > 100 | > 100 | – | – | > 100 | > 100 | > 100 |
| Cn1c(=O)c2/c(n(C)c1=O)=N\C=c1\c(=O)n(C)c(=O)n(C)\c1=N\C=2 | > 100 | > 100 | > 100 | > 100 | > 100 | > 100 | – | – | – | – | – | – | > 100 | – | – | – | – | – | – | – |
| Cc1ccc(C(=O)CC2=Nc3nnc(CCCCCCCc4nnc5n4C(=O)C(CC(=O)c4ccc(C)cc4)=N5)n3C2=O)cc1 | > 100 | > 100 | > 100 | > 100 | > 100 | > 100 | – | – | – | – | – | – | > 100 | – | – | – | – | – | – | – |
| O=C(NC(=O)c1ccccc1[N+](=O)[O-])Nc1ccc(Oc2ncc(Cl)cn2)c(C(F)(F)F)c1 | 9.71 | – | 3.63 | > 100 | 39.4 | 41.8 | – | – | – | – | 2.6 | – | 35.2 | – | – | – | > 89.1 | – | – | – |
| O=C(/C=C\c1cccc2ccccc12)c1cccc2ccccc12 | 6.01 | 32.4 | 16.5 | 8.96 | 26 | 29.9 | 2.61 | – | – | – | – | – | 27.4 | 4.2 | 2.09 | – | – | – | – | – |
| CC(=O)[CH-]C(=O)c1ccccc1.CC(=O)[CH-]C(=O)c1ccccc1.CC[O-].O=C1c2ccccc2C(=O)c2c1ccc(O)c2[O-].[Ti+4] | > 100 | > 100 | > 100 | > 100 | > 100 | > 100 | – | – | – | – | – | – | 86.9 | – | – | – | – | – | – | – |
| O=NN(CCCl)C(=O)NC1CCC(CC2CCC(NC(=O)N(CCCl)N=O)CC2)CC1 (configuration not stated) | > 31.6 | > 100 | > 100 | 99.6 | > 100 | > 100 | – | – | 77.9 | – | – | – | 99.9 | – | – | – | – | – | – | – |
| O=[N+]([O-])c1cccc2nccc(NCCCO)c12 | 37.3 | 35.4 | 24.6 | 27.1 | 25.6 | 23.6 | – | – | – | – | 41.4 | – | 35.3 | – | – | – | 79.7 | – | – | – |
| CC1(C)C(=O)/C(=C\c2cccnc2)C[C@]2(C)[C@H]3CC[C@@H]4[C@@H](C(=O)/C=C/c5ccncc5)CC[C@@]4(C)[C@]3(C)CC[C@@H]12 | 10.3 | 6.46 | 3.56 | – | 4.93 | 4.44 | 2.34 | 2.28 | 7.12 | 2.96 | 9.94 | 1.67 | 3.04 | 1.72 | – | 1.6 | 9.54 | 1.89 | 1.8 | 2.51 |
| O=S1Nc2c(Cl)cc(Cl)c(Cl)c2S1 (configuration not stated) | > 100 | > 100 | > 100 | > 100 | > 100 | > 100 | – | – | – | – | – | – | > 100 | – | – | – | – | – | – | – |
| OCCN1CCN(CC/C=C2/c3ccccc3Sc3ccc(Cl)cc32)CC1 | 29.1 | 24.4 | 23.2 | 29.2 | 6.24 | 7.16 | 15.2 | – | – | – | – | – | 27.3 | – | – | – | – | – | – | – |
| Nc1c(C(=O)Nc2cccc(Cl)c2Cl)sc2nc3c(cc12)C(=O)CCC3 | > 100 | > 100 | > 100 | – | > 100 | > 100 | > 100 | > 100 | > 100 | > 100 | > 100 | > 100 | > 100 | > 100 | – | > 100 | > 100 | > 100 | > 100 | > 100 |
| C[C@@H](Nc1nc(Nc2ccc(F)c(Cl)c2)nc2ccccc12)C1CC1 | 20.5 | 15.7 | 14.1 | 9.34 | 4.12 | – | 3.58 | 2.3 | 8.52 | 2.46 | 7.61 | 2.62 | 14 | 3.18 | 1.48 | 2.7 | 14 | 1.87 | – | 3.18 |
